Data from the supplement of paper PMC13380429.
± gives the standard deviation of the averaged measurements.

Tests used:
Settings in all cases: 72 h
Calu-3 [1] = experiment: cell viability relative to DMSO; higher = less toxic
U2OS [2] = experiment: as above
HepG2 [3] = experiment: as above
Caco-2 [4] = experiment: as above
Vero E6 [5] = experiment: as above
Calu-3 [6] = experiment: drug sensitivity score (DSS) for viability; higher = more toxic; extreme values may be limits of the assay
U2OS [7] = experiment: as above
HepG2 [8] = experiment: as above
Caco-2 [9] = experiment: as above
Vero E6 [10] = experiment: as above
Calu-3 [11] = experiment: relative viability EC50 (midpoint between 100% and the lowest measured viability); higher = less toxic
U2OS [12] = experiment: as above
HepG2 [13] = experiment: as above
Caco-2 [14] = experiment: as above
Vero E6 [15] = experiment: as above

| Structure (SMILES) | cell viability (Calu-3 [1]; 1 nM) | cell viability (Calu-3 [1]; 10 nM) | cell viability (Calu-3 [1]; 100 nM) | cell viability (Calu-3 [1]; 1000 nM) | cell viability (Calu-3 [1]; 10000 nM) | cell viability (U2OS [2]; 1 nM) | cell viability (U2OS [2]; 10 nM) | cell viability (U2OS [2]; 100 nM) | cell viability (U2OS [2]; 1000 nM) | cell viability (U2OS [2]; 10000 nM) | cell viability (HepG2 [3]; 1 nM) | cell viability (HepG2 [3]; 10 nM) | cell viability (HepG2 [3]; 100 nM) | cell viability (HepG2 [3]; 1000 nM) | cell viability (HepG2 [3]; 10000 nM) | cell viability (Caco-2 [4]; 1 nM) | cell viability (Caco-2 [4]; 10 nM) | cell viability (Caco-2 [4]; 100 nM) | cell viability (Caco-2 [4]; 1000 nM) | cell viability (Caco-2 [4]; 10000 nM) | cell viability (Vero E6 [5]; 1 nM) | cell viability (Vero E6 [5]; 10 nM) | cell viability (Vero E6 [5]; 100 nM) | cell viability (Vero E6 [5]; 1000 nM) | cell viability (Vero E6 [5]; 10000 nM) | drug sensitivity score (Calu-3 [6]) | drug sensitivity score (U2OS [7]) | drug sensitivity score (HepG2 [8]) | drug sensitivity score (Caco-2 [9]) | drug sensitivity score (Vero E6 [10]) | relative viability EC50 (Calu-3 [11]) | relative viability EC50 (U2OS [12]) | relative viability EC50 (HepG2 [13]) | relative viability EC50 (Caco-2 [14]) | relative viability EC50 (Vero E6 [15]) |
| --- | --- | --- | --- | --- | --- | --- | --- | --- | --- | --- | --- | --- | --- | --- | --- | --- | --- | --- | --- | --- | --- | --- | --- | --- | --- | --- | --- | --- | --- | --- | --- | --- | --- | --- | --- |
| c1ccc2c(-c3cnn4cc(-c5ccc(N6CCNCC6)cc5)cnc34)ccnc2c1 | 95.8% | 98.6% | 112% | 93.9% | 0.4% | 95.1% | 94.2% | 92.1% | 80.4% | -0.1% | 99.3% | 111% | 94.5% | 75.7% | -0.1% | 107% | 87.7% | 120% | 85.9% | 11.4% | 90% | 102% | 98.1% | 71.5% | -0.1% | 6.4 | 8.7 | 9.3 | 7.2 | 9.7 | 2.69 µM | 1.75 µM | 1.57 µM | 1.94 µM | 1.44 µM |
| NC(CO)(CO)CO [trometamol] | 92.4% | 117% | 103% | 101% | 108% | 93.3% | 96.6% | 98.8% | 101% | 107% | 101% | 93.7% | 106% | 86% | 100% | 93.4% | 102% | 111% | 112% | 97.3% | 102% | 98.6% | 106% | 86.4% | 95.4% | 0 | 0 | 0 | 0 | 0 | > 10 µM | > 10 µM | > 10 µM | > 10 µM | > 10 µM |
| C[C@H]1CCc2c(cc(Br)c(F)c2Br)N1C=O [CE3F4] | 105% | 102% | 89.6% | 93.7% | 90% | 98.3% | 101% | 99.6% | 102% | 96.1% | 110% | 99.2% | 113% | 100% | 103% | 105% | 99.9% | 91.9% | 104% | 88.8% | 103% | 101% | 98.2% | 93.8% | 102% | 0.2 | 0 | 0 | 0 | 0 | > 10 µM | > 10 µM | > 10 µM | > 10 µM | > 10 µM |
| O=C(c1c(O)nc2cc(Cl)ccc2c1O)C1CC1 | 96.5% | 88.1% | 106% | 97.1% | 96.5% | 99.9% | 98.6% | 102% | 96% | 98.1% | 97.7% | 112% | 89.6% | 102% | 104% | 94.7% | 91.3% | 90.1% | 93.5% | 98.4% | 90.4% | 98.6% | 90.1% | 95.9% | 109% | 0 | 0 | 0 | 0 | 0 | > 10 µM | > 10 µM | > 10 µM | > 10 µM | > 10 µM |
| OCCC#Cc1nc(-c2ccc(F)cc2)c(-c2ccncc2)n1CCCc1ccccc1 | 101% | 100% | 83.6% | 90.2% | 79.7% | 95.9% | 92% | 94.7% | 90.1% | 79.7% | 90.4% | 99.5% | 105% | 99.6% | 93.9% | 98.4% | 106% | 91.6% | 91.6% | 78.6% | 92.5% | 99.7% | 87% | 85% | 100% | 2.2 | 1.1 | 0 | 1.2 | 0 | > 10 µM | > 10 µM | > 10 µM | > 10 µM | > 10 µM |
| CC(C)(C)NC(=O)N[C@H](C(=O)N1C[C@H]2[C@@H]([C@H]1C(=O)NC(CC1CCC1)C(=O)C(N)=O)C2(C)C)C(C)(C)C (stereo not given in full) [Boceprevir] | 102% | 95.1% | 95.7% | 100% | 102% | 102% | 93.7% | 100% | 96.1% | 91.6% | 102% | 102% | 95.6% | 100% | 105% | 103% | 94.4% | 108% | 92.5% | 105% | 102% | 100% | 102% | 92.7% | 99.9% | 0 | 0 | 0 | 0 | 0 | > 10 µM | > 10 µM | > 10 µM | > 10 µM | > 10 µM |
| CC/C(=C(/CC)c1ccc(O)cc1)c1ccc(O)cc1 [diethylstilbestrol] | 106% | 96.7% | 114% | 103% | 109% | 98.6% | 94% | 99.5% | 94.3% | 96.8% | 111% | 98.8% | 103% | 98.8% | 106% | 97.7% | 87.3% | 107% | 106% | 81.5% | 95.1% | 99.8% | 91.2% | 98.3% | 107% | 0 | 0 | 0 | 0.3 | 0 | > 10 µM | > 10 µM | > 10 µM | > 10 µM | > 10 µM |
| COc1cc2c(cc1OC)CC(=O)N(CCCN(C)C[C@H]1Cc3cc(OC)c(OC)cc31)CC2 [ivabradine] | 111% | 85.1% | 98.4% | 101% | 105% | 106% | 102% | 99.6% | 99.1% | 101% | 109% | 113% | 98.2% | 102% | 89.3% | 98.3% | 85.6% | 102% | 100% | 99.8% | 101% | 99.7% | 100% | 107% | 99.4% | 0 | 0 | 0 | 0 | 0 | > 10 µM | > 10 µM | > 10 µM | > 10 µM | > 10 µM |
| CCOc1ccc(-n2c([C@@H](C)N(Cc3cccnc3)C(=O)Cc3ccc(OC(F)(F)F)cc3)nc3ncccc3c2=O)cc1 (racemic) [AMG-487-(+/-)] | 100.8 ± 0.57% | 99.7 ± 0.99% | 93.3 ± 2.7% | 92.1 ± 3.4% | 98.5 ± 6% | 100.5 ± 0.35% | 101 ± 4% | 97.3 ± 1.7% | 98.6 ± 0.85% | 99.6 ± 1.7% | 99.7 ± 1.1% | 98 ± 11% | 97.5 ± 8.5% | 95.2 ± 4.5% | 94 ± 13% | 94 ± 2.5% | 98.2 ± 13% | 98.5 ± 2% | 101 ± 6% | 94.5 ± 8.4% | 97.8 ± 3.2% | 102 ± 3.9% | 101 ± 2.5% | 97.8 ± 0.57% | 102 ± 2.5% | 0.05 ± 0.071 | 0 | 0.45 ± 0.64 | 0 | 0 | > 10 µM | > 10 µM | > 10 µM | > 10 µM | > 10 µM |
| Nc1ncnc2c1nc(Br)n2[C@@H]1O[C@@H]2COP(=O)(O)O[C@H]2[C@H]1O [8-bromo-cAMP] | 92.8% | 104% | 95.9% | 103% | 95.8% | 102% | 96.8% | 105% | 99% | 102% | 95.2% | 96.5% | 93.1% | 98.2% | 85.7% | 106% | 95.8% | 97.8% | 98.5% | 81.5% | 100% | 102% | 103% | 102% | 96% | 0 | 0 | 0 | 0.7 | 0 | > 10 µM | > 10 µM | > 10 µM | > 10 µM | > 10 µM |
| CCN1C[C@H](C)n2c(c(O)c3c(=O)n(Cc4ccc(F)c(Cl)c4)nc(C(=O)NC)c32)C1=O [MK-2048] | 91.3% | 90.2% | 92.3% | 98.2% | 93.7% | 101% | 96.3% | 102% | 98.5% | 97.8% | 110% | 106% | 93.9% | 100% | 98.4% | 97.2% | 96% | 93.2% | 94.7% | 87.4% | 101% | 100% | 105% | 101% | 98% | 0 | 0 | 0 | 0 | 0 | > 10 µM | > 10 µM | > 10 µM | > 10 µM | > 10 µM |
| C[C@H]1N=C(N(C)C)N=C(N)N1 [imeglimin] | 97% | 114% | 96.9% | 104% | 104% | 99.7% | 105% | 96.9% | 102% | 103% | 96.4% | 96.7% | 97.7% | 99% | 100% | 86.3% | 88% | 96.2% | 97.3% | 97.6% | 92.5% | 96.2% | 92.8% | 101% | 105% | 0 | 0 | 0 | 0 | 0 | > 10 µM | > 10 µM | > 10 µM | > 10 µM | > 10 µM |
| CC1(C)O[C@@H]2C[C@H]3[C@@H]4CCC5=CC(=O)C=C[C@]5(C)[C@@]4(F)[C@@H](O)C[C@]3(C)[C@]2(C(=O)CO)O1 [TRIAMCINOLONE ACETONIDE] | 98.4% | 95.4% | 87.6% | 103% | 106% | 99.4% | 95.7% | 94.6% | 90.7% | 95.2% | 103% | 91.3% | 94.6% | 101% | 93% | 94.2% | 96.2% | 96.8% | 89% | 93.1% | 102% | 99% | 95.3% | 97.4% | 100% | 0 | 0 | 0 | 0 | 0 | > 10 µM | > 10 µM | > 10 µM | > 10 µM | > 10 µM |
| CC1=C(CC(=O)O)c2cc(F)ccc2/C1=C\c1ccc([S+](C)[O-])cc1 (stereo not given) [sulindac] | 102% | 113% | 96.5% | 98% | 101% | 101% | 99.2% | 97.4% | 101% | 97.4% | 117% | 90.2% | 93.3% | 84% | 108% | 96% | 100% | 103% | 94.9% | 85.1% | 105% | 102% | 103% | 92.9% | 94.4% | 0 | 0 | 0 | 0.6 | 0 | > 10 µM | > 10 µM | > 10 µM | > 10 µM | > 10 µM |
